Reference: US11401277B2, “Anti-bacterial heterocyclic compounds and their synthesis” (Bugworks Research, Inc., priority 2017, dated 2022)
Several values for one entry are separate records, joined by “and”; a condition that tells them apart may be missing. Equal values may be shown once.

What was measured:
[1] = system: P. aeruginosa [ATCC27853]; assay: Neutropenic Lung Infection Model in Rat; type: in vivo; details: for Log10 CFU/g Lung / MEAN ± SD (Log10 CFU/g Lung) / Mean Log 10 CFU/g lung reduction (wrt 4 h PI control: 6.52 Log10CFU/g lung): i.v., 1 h infusion; for Log10 CFU/g Lung: individual animals, 24 h post infection
Experimental: Animals were placed into an induction chamber and anaesthesia was induced by exposing the animals to 3-5% Isoflurane in an oxygen flow set at approximately (˜) 1 liter per minute (LPM). […] A gentle mixing of inoculum between two animals was followed for uniform distribution.
Meropenem was formulated in saline.
Entire Lung was aseptically isolated, weighed and placed into 1 mL of sterile CSDB broth, and homogenized (Omni Tip (220 V hand held)). Serial ten-fold dilutions of the lungs homogenates were prepared in sterile CSD broth and 0.05 mL of four dilutions for each tissue was plated onto CSDA agar plates. Bacterial colonies were enumerated following overnight incubation at 37° C. Bacterial densities were estimated as Log10 CFU/g lung. The Mean±SD Log10 CFU/g lung was estimated in each group.

E. coli [ATCC25922] = assay: Urinary Tract Infection Rat Model (kidneys, bladder); details: for MEAN ± SD (Log10 CFU/g kidneys) / MEAN ± SD (Log10 CFU/ml Bladder) / Mean Log10CFU/g kidney reduction (wrt 4 h PI control: 4.53 Log10CFU/g kidneys) / Mean Log10 CFU/ml Bladder reduction (wrt 4 h PI control: 5.72 CFU/ml Bladder) / Log10 CFU/g (Left Kidney) / Log10 CFU/g (Right Kidney) / Log10 CFU/ml Bladder: i.v., 1 h infusion; for Log10 CFU/g (Left Kidney) / Log10 CFU/g (Right Kidney) / Log10 CFU/ml Bladder: individual animals, 24 h post infection

Q: Which “Log10 CFU/g Lung” value ([1]; 10 mg/kg) does the source give for `Cn1c(=O)ccc2ccc(F)c(OCCNC[C@H]3CN(c4cnc5c(n4)NC(=O)CO5)C(=O)O3)c21` [Compound 2, (S)-6-(5-(((2-((7-fluoro-1-methyl-2-oxo-1,2-dihydroquinolin-8-yl)oxy)ethyl)amino)methyl)-2-oxooxazolidin-3-yl)-2H-pyrazino[2,3-b][1,4]oxazin-3(4H)-one] here?
A: The value was 7.34 Log10 CFU/g Lung and 6.98 Log10 CFU/g Lung and 6.46 Log10 CFU/g Lung.

Q: What about the “efficacy with respect to early infection control (in words)” value ([1]; 30 mg/kg and 100 mg/kg doses) of the same molecule?
A: Its value is “significant efficacy”.

Q: And the “MEAN ± SD (Log10 CFU/g Lung)” value ([1]; 30 mg/kg)?
A: Its value is 5.35 ± 0.25 Log10 CFU/g Lung.

Q: And the “Mean Log 10 CFU/g lung reduction (wrt 4 h PI control: 6.52 Log10CFU/g lung)” value ([1]; 30 mg/kg)?
A: Its value is 1.17 Log 10 CFU/g lung.

Q: And the “Log10 CFU/g Lung” value ([1]; 30 mg/kg)?
A: The value was 5.30 Log10 CFU/g Lung and 5.63 Log10 CFU/g Lung and 5.14 Log10 CFU/g Lung.

Q: What about the “MEAN ± SD (Log10 CFU/g Lung)” value ([1]; 100 mg/kg) of the same molecule?
A: The value was 3.1 ± 0.12 Log10 CFU/g Lung.

Q: What about the “Mean Log 10 CFU/g lung reduction (wrt 4 h PI control: 6.52 Log10CFU/g lung)” value ([1]; 100 mg/kg) of the same molecule?
A: Its value is 3.42 Log 10 CFU/g lung.

Q: And the “Log10 CFU/g Lung” value ([1]; 100 mg/kg)?
A: The value was 3.12 Log10 CFU/g Lung and 3.20 Log10 CFU/g Lung and 2.98 Log10 CFU/g Lung.

Q: And the “effect when compared to the 4 h PI control (in words)” value (E. coli [ATCC25922]; 3 mg/kg)?
A: Its value is “bacteriostatic”.

Q: What about the “MEAN ± SD (Log10 CFU/g kidneys)” value (E. coli [ATCC25922]; 3 mg/kg) of the same molecule?
A: The value was 5.13 ± 0.28 Log10 CFU/g kidneys.

Q: What about the “MEAN ± SD (Log10 CFU/ml Bladder)” value (E. coli [ATCC25922]; 3 mg/kg) of the same molecule?
A: Its value is 5.89 ± 0.4 Log10 CFU/ml Bladder.

Q: And the “Mean Log10CFU/g kidney reduction (wrt 4 h PI control: 4.53 Log10CFU/g kidneys)” value (shortened to “Mean Log10CFU/g kidney reduction”) (E. coli [ATCC25922]; 3 mg/kg)?
A: The value was −0.60 Log10CFU/g kidney.

Q: And the “Mean Log10 CFU/ml Bladder reduction (wrt 4 h PI control: 5.72 CFU/ml Bladder)” value (from here on “Mean Log10 CFU/ml Bladder reduction”) (E. coli [ATCC25922]; 3 mg/kg)?
A: The value was −0.17 Log10 CFU/ml Bladder.

Q: What about the “Log10 CFU/g (Left Kidney)” value (E. coli [ATCC25922]; 3 mg/kg) of the same molecule?
A: The value was 5.39 Log10 CFU/g and 5.17 Log10 CFU/g and 5.24 Log10 CFU/g.

Q: What about the “Log10 CFU/g (Right Kidney)” value (E. coli [ATCC25922]; 3 mg/kg) of the same molecule?
A: The value was 4.68 Log10 CFU/g and 4.90 Log10 CFU/g and 5.39 Log10 CFU/g.

Q: And the “Log10 CFU/ml Bladder” value (E. coli [ATCC25922]; 3 mg/kg)?
A: Its value is 5.43 Log10 CFU/ml Bladder and 6.16 Log10 CFU/ml Bladder and 6.08 Log10 CFU/ml Bladder.

Q: And the “MEAN ± SD (Log10 CFU/g kidneys)” value (E. coli [ATCC25922]; 10 mg/kg)?
A: Its value is 3.95 ± 0.33 Log10 CFU/g kidneys.

Q: What about the “MEAN ± SD (Log10 CFU/ml Bladder)” value (E. coli [ATCC25922]; 10 mg/kg) of the same molecule?
A: Its value is 4.8 ± 0.2 Log10 CFU/ml Bladder.

Q: And the “Mean Log10CFU/g kidney reduction” value (E. coli [ATCC25922]; 10 mg/kg)?
A: The value was 0.58 Log10CFU/g kidney.

Q: What about the “Mean Log10 CFU/ml Bladder reduction” value (E. coli [ATCC25922]; 10 mg/kg) of the same molecule?
A: The value was 0.92 Log10 CFU/ml Bladder.

Q: What about the “Log10 CFU/g (Left Kidney)” value (E. coli [ATCC25922]; 10 mg/kg) of the same molecule?
A: The value was 4.12 Log10 CFU/g and 3.78 Log10 CFU/g and 4.46 Log10 CFU/g.

Q: And the “Log10 CFU/g (Right Kidney)” value (E. coli [ATCC25922]; 10 mg/kg)?
A: Its value is 4.11 Log10 CFU/g and 3.65 Log10 CFU/g and 3.61 Log10 CFU/g.

Q: What about the “Log10 CFU/ml Bladder” value (E. coli [ATCC25922]; 10 mg/kg) of the same molecule?
A: The value was 5.02 Log10 CFU/ml Bladder and 4.61 Log10 CFU/ml Bladder and 4.76 Log10 CFU/ml Bladder.

Q: And the “MEAN ± SD (Log10 CFU/g kidneys)” value (E. coli [ATCC25922]; 30 mg/kg)?
A: The value was 2.91 ± 0.31 Log10 CFU/g kidneys.

Q: And the “MEAN ± SD (Log10 CFU/ml Bladder)” value (E. coli [ATCC25922]; 30 mg/kg)?
A: Its value is 3.89 ± 0.3 Log10 CFU/ml Bladder.

Q: What about the “Mean Log10CFU/g kidney reduction” value (E. coli [ATCC25922]; 30 mg/kg) of the same molecule?
A: The value was 1.62 Log10CFU/g kidney.

Q: And the “Mean Log10 CFU/ml Bladder reduction” value (E. coli [ATCC25922]; 30 mg/kg)?
A: The value was 1.83 Log10 CFU/ml Bladder.

Q: And the “Log10 CFU/g (Left Kidney)” value (E. coli [ATCC25922]; 30 mg/kg)?
A: Its value is 3.22 Log10 CFU/g and 3.36 Log10 CFU/g and 2.80 Log10 CFU/g.

Q: What about the “Log10 CFU/g (Right Kidney)” value (E. coli [ATCC25922]; 30 mg/kg) of the same molecule?
A: The value was 2.77 Log10 CFU/g and 2.75 Log10 CFU/g and 2.55 Log10 CFU/g.

Q: And the “Log10 CFU/ml Bladder” value (E. coli [ATCC25922]; 30 mg/kg)?
A: Its value is 4.19 Log10 CFU/ml Bladder and 3.90 Log10 CFU/ml Bladder and 3.58 Log10 CFU/ml Bladder.

Q: What about the “effect with respect to 4 h PI control (in words)” value (E. coli [ATCC25922]; 10 and 30 mg/kg) of the same molecule?
A: Its value is “significant dose dependent bactericidal effect”.
